Broadly, the Ki is the dissociation constant of the complex between target and ligand, obtained from inhibition or displacement. Read a high Ki as a looser hold on the target.

In assay [1] the target is 5-hydroxytryptamine receptor 2B (Homo sapiens, UniProt P41595).
Assay [2] deals with T1, 5-hydroxytryptamine receptor 2C (Homo sapiens, UniProt P28335).
T1 sequence (P28335 whole entry): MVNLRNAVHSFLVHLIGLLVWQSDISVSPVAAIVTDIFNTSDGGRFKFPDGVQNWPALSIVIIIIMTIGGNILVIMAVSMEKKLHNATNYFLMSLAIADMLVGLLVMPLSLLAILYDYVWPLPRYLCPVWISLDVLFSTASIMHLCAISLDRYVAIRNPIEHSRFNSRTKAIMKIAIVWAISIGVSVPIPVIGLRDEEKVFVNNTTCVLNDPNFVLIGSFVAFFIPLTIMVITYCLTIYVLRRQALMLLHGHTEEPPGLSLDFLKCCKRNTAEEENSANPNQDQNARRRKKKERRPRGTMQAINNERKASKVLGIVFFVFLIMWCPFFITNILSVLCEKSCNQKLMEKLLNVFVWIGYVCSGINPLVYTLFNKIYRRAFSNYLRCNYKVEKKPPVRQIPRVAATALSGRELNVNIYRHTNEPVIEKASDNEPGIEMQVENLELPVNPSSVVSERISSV

In assay [3] the target is T2, 5-hydroxytryptamine receptor 2C (Rattus norvegicus, UniProt P08909).
T2 sequence (P08909 whole entry): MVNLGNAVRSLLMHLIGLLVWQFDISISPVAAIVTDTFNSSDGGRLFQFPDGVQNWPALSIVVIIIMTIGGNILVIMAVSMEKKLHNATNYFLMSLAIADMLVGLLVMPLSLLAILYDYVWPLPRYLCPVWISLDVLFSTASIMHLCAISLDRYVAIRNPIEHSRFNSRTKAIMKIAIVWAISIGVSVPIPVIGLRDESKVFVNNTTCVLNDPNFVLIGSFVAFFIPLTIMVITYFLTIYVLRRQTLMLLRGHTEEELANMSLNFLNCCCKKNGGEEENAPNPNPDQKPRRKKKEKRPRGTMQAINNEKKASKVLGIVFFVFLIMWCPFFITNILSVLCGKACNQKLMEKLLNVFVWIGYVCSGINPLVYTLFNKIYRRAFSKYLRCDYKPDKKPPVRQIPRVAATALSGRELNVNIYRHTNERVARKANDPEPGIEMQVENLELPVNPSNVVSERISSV

The target in assay [4] is 5-hydroxytryptamine receptor 2B (Rattus norvegicus, UniProt P30994).
Sequence of 5-hydroxytryptamine receptor 2B (Rattus norvegicus, UniProt P30994) (P30994 whole entry): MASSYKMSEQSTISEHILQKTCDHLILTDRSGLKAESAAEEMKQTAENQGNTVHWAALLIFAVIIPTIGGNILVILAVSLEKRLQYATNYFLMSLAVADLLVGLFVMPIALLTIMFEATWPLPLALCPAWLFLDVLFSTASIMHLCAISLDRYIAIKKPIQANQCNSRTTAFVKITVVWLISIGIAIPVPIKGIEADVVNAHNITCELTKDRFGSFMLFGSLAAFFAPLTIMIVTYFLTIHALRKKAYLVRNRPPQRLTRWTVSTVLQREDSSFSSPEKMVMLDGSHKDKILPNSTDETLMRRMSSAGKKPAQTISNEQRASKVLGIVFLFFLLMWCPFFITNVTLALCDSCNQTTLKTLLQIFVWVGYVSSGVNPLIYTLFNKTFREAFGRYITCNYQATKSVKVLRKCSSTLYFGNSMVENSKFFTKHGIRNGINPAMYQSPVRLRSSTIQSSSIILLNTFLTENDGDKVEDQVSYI

Several values for one entry are separate records, joined by “and”; a condition that tells them apart may be missing. Identical values can stand only once.

Sequence of 5-hydroxytryptamine receptor 2B (Homo sapiens, UniProt P41595) (P41595 whole entry): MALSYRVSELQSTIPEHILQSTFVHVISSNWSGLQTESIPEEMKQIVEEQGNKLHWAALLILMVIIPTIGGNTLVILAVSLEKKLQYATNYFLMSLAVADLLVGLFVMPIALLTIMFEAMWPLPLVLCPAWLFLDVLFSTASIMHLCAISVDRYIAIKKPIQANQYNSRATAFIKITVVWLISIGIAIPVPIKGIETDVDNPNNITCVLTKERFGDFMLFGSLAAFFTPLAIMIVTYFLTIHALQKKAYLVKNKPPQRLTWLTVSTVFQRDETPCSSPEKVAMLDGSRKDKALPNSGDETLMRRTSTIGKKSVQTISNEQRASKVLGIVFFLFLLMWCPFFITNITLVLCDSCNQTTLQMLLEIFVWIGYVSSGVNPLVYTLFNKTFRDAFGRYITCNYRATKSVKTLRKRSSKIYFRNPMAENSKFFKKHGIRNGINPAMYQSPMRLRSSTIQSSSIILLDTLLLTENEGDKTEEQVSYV

Turning to `Cc1nc2sccn2c(=O)c1CCN1CCC(=C(c2ccc(F)cc2)c2ccc(F)cc2)CC1`, the Ki is 5.01 nM in assay [1] and 0.25 nM in assay [2].
For the molecule `CC[C@@H](CO)NC(=O)[C@@H]1C=C2c3cccc4c3c(cn4C)C[C@H]2N(C)C1`, the Ki in assay [3] is 1.99 nM; in assay [2], 1.58 nM.
For the molecule `O=C(c1ccc(F)cc1)C1CCN(CCn2c(=O)[nH]c3ccccc3c2=O)CC1` [3-(2-{4-[(4-fluorophenyl)carbonyl]piperidin-1-yl}ethyl)-1,2,3,4-tetrahydroquinazoline-2,4-dione], the inhibitory constant (Ki) in assay [3] is 63.1 nM; in assay [4], 3980 nM.
For the molecule `O=C(CCCN1CCC2(CC1)C(=O)NCN2c1ccccc1)c1ccc(F)cc1` [8-[4-(4-fluorophenyl)-4-oxidanylidene-butyl]-1-phenyl-1,3,8-triazaspiro[4.5]decan-4-one], the Ki was 1580 nM in assay [1]; 501 nM and 1000 nM in assay [2].
Regarding `Cn1ccc2cc(NC(=O)Nc3cccnc3)ccc21` [SB 200646], the Ki amounted to 631 nM in assay [1], 1000 nM in assay [3] and 501 nM in assay [2].
Turning to `Clc1cccc(N2CCNCC2)c1` [mCPP], the figures for the Ki in assay [3] and in assay [4] were 126 nM and 25.1 nM, respectively.
In the same order, the values of `COC(=O)[C@@H]1[C@H]2C[C@H]3c4[nH]c5ccccc5c4CCN3C[C@@H]2CC[C@@H]1O` [yohimbic acid methyl ester] are > 10000 nM and 50.1 nM.

The values are drawn from BindingDB's records for doi:10.1111/j.1476-5381.1995.tb14977.x (Syntex Discovery Research, 1995).
